Assay results: US20240207453A1, “13C METHACETIN GRANULE, AND PREPARATION METHOD THEREFOR AND USE THEREOF” (BEIJING RICHEN-FORCE SCIENCE & TECHNOLOGY CO., LTD, priority 2021, published 2024)

What was measured:
[1] = comparison of water solubility; assay type: physicochemical; settings: against the requirements of clinical use
[2] = comparison of stability (appearance, impurities) during storage; assay type: physicochemical
Experimental: Experimental Groups 1 to 6: the 13C-methacetin granular formulations prepared in Examples 1 to 6 of the present disclosure
Control Group 1: a powdered formulation. The respective adjuvant materials and the raw drug were weighed at a prescribed ratio and mixed uniformly in a mixer for 3 hours, whereby a powdered formulation or a powder was prepared.
Control Group 2: another granular formulation.
13C-methacetin has a low solubility in water, has a slow dissolution rate, should be stirred for a long time when being dissolved in 100 ml of water in an amount of 50 mg, and thus is not convenient in oral administration. […] The powders are agglomerated during storage. The addition of the adjuvant materials helps to improve the stability of the product, and the degraded impurities are less than those of the raw drug powder. […] By comparison, the developed granular formulation has better stability and water solubility, is stable in quality, and has high value in use.

## CC(=O)Nc1ccc(O[13CH3])cc1 [13C-methacetin, N-acetyl-p-anisidine (methoxy-13C)]
[1]
  water solubility (in words): low
[2]
  Stability: Appearance (agglomeration): likely to agglomerate
